Data as given in paper PMC6706138, “IL-6–HaloTag® enables live-cell plasma membrane staining, flow cytometry, functional expression, and de-orphaning of recombinant odorant receptors” (Journal of Biological Methods, 2017).

Tests used:
Assay type in all cases: cell-based
OR2M3 = target: T1, OR2M3 (Homo sapiens, UniProt Q8NG83); assay: GloSensor cAMP luminescence; details: IL-6-HaloTag construct, NxG […]CC15 cells, pH […] DMSO, RTP1S/Gαolf/Gγ[…] co-transfected; agonist; read-out: IL-6-HaloTag®-receptor / EC50
T1 construct: full coding region amplified from human genomic DNA, N-terminal IL-6-HaloTag kept, transient in NxG 108CC15 cells with RTP1S, G-alpha-olf, G-gamma-13, GloSensor-22F
T1 sequence (Q8NG83 1-312): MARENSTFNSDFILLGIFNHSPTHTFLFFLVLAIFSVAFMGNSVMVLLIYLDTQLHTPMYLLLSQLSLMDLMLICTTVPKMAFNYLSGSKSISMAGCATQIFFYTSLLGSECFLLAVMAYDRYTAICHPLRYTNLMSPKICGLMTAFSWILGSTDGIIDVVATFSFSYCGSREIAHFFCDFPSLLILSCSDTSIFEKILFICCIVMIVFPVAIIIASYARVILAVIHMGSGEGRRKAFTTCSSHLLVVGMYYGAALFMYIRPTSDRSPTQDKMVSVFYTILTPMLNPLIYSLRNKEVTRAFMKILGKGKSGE
Source text: GloSensor cAMP luminescence on OR2M3

OR1A1 [1] = target: T2, OR1A1 (Homo sapiens, UniProt Q9P1Q5); assay: GloSensor cAMP luminescence; details: read-out: IL-6-HaloTag®-receptor / EC50
T2 construct: full coding region amplified from human genomic DNA, N-terminal IL-6-HaloTag kept, transient in NxG 108CC15 cells with RTP1S, G-alpha-olf, G-gamma-13, GloSensor-22F
T2 sequence (Q9P1Q5 1-309): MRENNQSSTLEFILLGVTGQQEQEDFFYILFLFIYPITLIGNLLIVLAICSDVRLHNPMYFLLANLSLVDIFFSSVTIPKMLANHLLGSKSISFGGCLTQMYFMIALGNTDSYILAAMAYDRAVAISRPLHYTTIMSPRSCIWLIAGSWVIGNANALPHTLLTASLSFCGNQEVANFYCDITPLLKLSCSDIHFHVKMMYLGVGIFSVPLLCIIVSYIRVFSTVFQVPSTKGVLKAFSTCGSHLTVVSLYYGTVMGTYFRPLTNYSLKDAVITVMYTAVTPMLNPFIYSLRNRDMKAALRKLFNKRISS
Source text: GloSensor cAMP luminescence on OR1A1

OR1A1 [2] = target: T2, OR1A1; assay: GloSensor cAMP luminescence, single-concentration screen; details: IL-6-HaloTag construct, NxG […]CC15 cells, n = […] in duplicates, agonist
OR2W1 = target: T3, OR2W1 (Homo sapiens, UniProt Q9Y3N9); assay: GloSensor cAMP luminescence
T3 construct: full coding region amplified from human genomic DNA, N-terminal IL-6-HaloTag kept, transient in NxG 108CC15 cells with RTP1S, G-alpha-olf, G-gamma-13, GloSensor-22F
T3 sequence (Q9Y3N9 1-320): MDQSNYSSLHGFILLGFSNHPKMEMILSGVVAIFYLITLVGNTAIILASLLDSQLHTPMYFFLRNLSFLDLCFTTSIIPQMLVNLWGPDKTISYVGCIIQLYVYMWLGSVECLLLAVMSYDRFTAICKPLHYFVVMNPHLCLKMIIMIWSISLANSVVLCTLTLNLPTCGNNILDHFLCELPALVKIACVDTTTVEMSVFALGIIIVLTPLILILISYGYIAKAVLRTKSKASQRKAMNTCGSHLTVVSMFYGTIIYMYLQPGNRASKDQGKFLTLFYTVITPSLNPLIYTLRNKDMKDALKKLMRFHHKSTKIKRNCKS
Source text: GloSensor cAMP luminescence on OR2W1

OR51E1 = target: T4, OR51E1 (Homo sapiens, UniProt Q8TCB6); assay: GloSensor cAMP luminescence; details: read-out: IL-6-HaloTag®-receptor / EC50
T4 construct: full coding region amplified from human genomic DNA, N-terminal IL-6-HaloTag kept, transient in NxG 108CC15 cells with RTP1S, G-alpha-olf, G-gamma-13, GloSensor-22F
T4 sequence (Q8TCB6 1-318): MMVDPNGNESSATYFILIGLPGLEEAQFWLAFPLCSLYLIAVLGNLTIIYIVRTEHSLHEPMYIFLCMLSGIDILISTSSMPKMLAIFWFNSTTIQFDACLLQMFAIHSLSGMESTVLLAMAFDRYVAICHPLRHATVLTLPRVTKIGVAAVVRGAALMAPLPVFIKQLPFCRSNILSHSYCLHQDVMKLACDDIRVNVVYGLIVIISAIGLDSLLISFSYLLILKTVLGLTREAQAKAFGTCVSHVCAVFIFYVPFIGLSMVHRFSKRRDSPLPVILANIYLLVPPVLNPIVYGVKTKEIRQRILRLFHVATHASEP
Source text: GloSensor cAMP luminescence on OR51E1

Olfr16 = target: T5, Olfr16 (Mus musculus, UniProt Q62007); assay: GloSensor cAMP luminescence; details: read-out: IL-6-HaloTag®-receptor / EC50
T5 construct: gene Or10j5; full coding region amplified from mouse genomic DNA, N-terminal IL-6-HaloTag kept, transient in NxG 108CC15 cells with RTP1S, G-alpha-olf, G-gamma-13, GloSensor-22F
T5 sequence (Q62007 1-309): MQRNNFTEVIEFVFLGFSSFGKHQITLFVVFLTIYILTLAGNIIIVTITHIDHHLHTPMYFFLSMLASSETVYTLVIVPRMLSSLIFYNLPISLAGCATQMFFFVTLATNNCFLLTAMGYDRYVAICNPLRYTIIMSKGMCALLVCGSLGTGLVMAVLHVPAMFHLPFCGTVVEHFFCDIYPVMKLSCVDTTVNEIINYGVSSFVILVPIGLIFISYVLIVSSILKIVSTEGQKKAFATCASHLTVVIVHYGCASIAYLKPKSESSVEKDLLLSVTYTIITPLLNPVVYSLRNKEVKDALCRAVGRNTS
Source text: GloSensor cAMP luminescence on Olfr16

OR10J5 = target: T6, OR10J5 (Homo sapiens, UniProt Q8NHC4); assay: GloSensor cAMP luminescence; details: read-out: IL-6-HaloTag®-receptor / EC50
T6 construct: full coding region amplified from human genomic DNA, N-terminal IL-6-HaloTag kept, transient in NxG 108CC15 cells with RTP1S, G-alpha-olf, G-gamma-13, GloSensor-22F
T6 sequence (Q8NHC4 1-309): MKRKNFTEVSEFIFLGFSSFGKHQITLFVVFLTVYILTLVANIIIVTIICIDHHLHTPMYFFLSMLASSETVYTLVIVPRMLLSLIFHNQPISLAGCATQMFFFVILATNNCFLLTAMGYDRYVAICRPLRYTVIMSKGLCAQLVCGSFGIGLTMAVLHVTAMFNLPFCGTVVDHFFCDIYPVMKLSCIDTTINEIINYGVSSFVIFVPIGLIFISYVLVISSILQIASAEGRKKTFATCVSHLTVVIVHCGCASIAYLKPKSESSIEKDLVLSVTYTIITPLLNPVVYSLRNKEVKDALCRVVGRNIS
Source text: GloSensor cAMP luminescence on OR10J5

OR8D1 = target: T7, OR8D1 (Homo sapiens, UniProt Q8WZ84); assay: GloSensor cAMP luminescence
T7 construct: full coding region amplified from human genomic DNA, N-terminal IL-6-HaloTag kept, transient in NxG 108CC15 cells with RTP1S, G-alpha-olf, G-gamma-13, GloSensor-22F
T7 sequence (Q8WZ84 1-308): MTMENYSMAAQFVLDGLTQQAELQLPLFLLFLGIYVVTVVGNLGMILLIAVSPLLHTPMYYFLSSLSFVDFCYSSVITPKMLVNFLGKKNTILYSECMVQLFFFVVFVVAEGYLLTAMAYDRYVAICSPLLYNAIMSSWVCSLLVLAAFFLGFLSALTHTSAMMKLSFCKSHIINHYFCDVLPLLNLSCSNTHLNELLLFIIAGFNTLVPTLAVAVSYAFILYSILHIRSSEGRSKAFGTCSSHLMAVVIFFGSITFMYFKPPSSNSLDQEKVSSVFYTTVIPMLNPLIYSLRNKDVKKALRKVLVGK
Source text: GloSensor cAMP luminescence on OR8D1

With CCC(S)C(C)CO (centres unmarked) [3-mercapto-2-methylpentan-1-ol] the EC50 (OR2M3) was 1.08 ± 1.16 µM.

In the case of C=C(C)[C@@H]1CC=C(C)C(=O)C1 [(R)-(-)-carvone], the EC50 (OR1A1 [1]) is reported as 7.66 ± 4.75 µM.

In the case of C=CCOC(=O)Cc1ccccc1 [allyl phenyl acetate], the “GloSensor cAMP luminescence, single-concentration screen” value (OR1A1 [2]) is reported as “allyl phenyl acetate best activated OR1A1 and OR2W1” and the EC50 (OR2W1) is reported as 27 ± 1.37 µM.

CCCC(=O)O [butyric acid] gave an EC50 (OR51E1) of 95.6 ± 33.4 µM.

Molecule CC(C)(O)CCCC1=CCC(C=O)CC1 (centres unmarked) [lyral] has an EC50 (Olfr16) of 34 ± 2.21 µM and an EC50 (OR10J5) of 16.3 ± 1.05 µM.

CC1=C(O)C(=O)OC1C (centres unmarked) [sotolone] showed an EC50 (OR8D1) of 1.81 ± 0.19 µM.
